Results on 11 compounds are retold here after publication PMC5159281 (Bioorganic & medicinal chemistry letters, 2016).

One may read the EC50 as the concentration at which the effect is half-maximal. One may read the IC50 as the concentration that gives 50% inhibition.

SMILES strings stand for the structures.

For one data set, the system named is CRL-8155 cells. Briefly: cells. The conditions noted are these: Homo sapiens, CRL8155, read-out: CRL8155 EC50.
In a further data set the test system is HepG2 cells. Kind of data set: cells. The conditions noted are these: Homo sapiens, HepG2, read-out: HepG2 EC50.
The subject of data set [1] is P. falciparum blood stage. The conditions noted are these: result in words.
A further data set deals with PfCDPK1 (Plasmodium falciparum, UniProt P62344). Briefly: biochemical.
For a further data set, the target named is recombinant PfCDPK4 (Plasmodium falciparum, UniProt Q8IBS5). Kind of data set: biochemical.
In the next data set the target is recombinant PfPKG (Plasmodium falciparum, UniProt Q8I719). Kind of data set: biochemical.
The conditions of data set [2]: cited from earlier work.
A further data set addresses hERG (Homo sapiens, UniProt Q12809). Conditions: cited from earlier work.

Chain of PfCDPK1 (P62344 whole entry): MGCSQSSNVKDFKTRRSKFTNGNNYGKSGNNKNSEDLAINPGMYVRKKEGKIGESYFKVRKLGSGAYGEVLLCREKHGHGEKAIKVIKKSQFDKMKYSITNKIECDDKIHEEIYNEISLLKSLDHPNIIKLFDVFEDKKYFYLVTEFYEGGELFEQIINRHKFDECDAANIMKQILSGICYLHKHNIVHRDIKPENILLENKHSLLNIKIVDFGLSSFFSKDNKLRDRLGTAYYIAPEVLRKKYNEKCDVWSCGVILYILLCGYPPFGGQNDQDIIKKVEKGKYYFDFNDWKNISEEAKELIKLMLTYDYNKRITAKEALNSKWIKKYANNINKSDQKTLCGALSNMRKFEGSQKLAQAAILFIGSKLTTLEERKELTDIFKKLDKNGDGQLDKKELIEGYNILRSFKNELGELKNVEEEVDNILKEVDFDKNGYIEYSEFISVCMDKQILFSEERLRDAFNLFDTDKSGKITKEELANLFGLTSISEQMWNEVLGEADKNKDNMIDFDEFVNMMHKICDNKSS
Chain of hERG (Q12809 whole entry): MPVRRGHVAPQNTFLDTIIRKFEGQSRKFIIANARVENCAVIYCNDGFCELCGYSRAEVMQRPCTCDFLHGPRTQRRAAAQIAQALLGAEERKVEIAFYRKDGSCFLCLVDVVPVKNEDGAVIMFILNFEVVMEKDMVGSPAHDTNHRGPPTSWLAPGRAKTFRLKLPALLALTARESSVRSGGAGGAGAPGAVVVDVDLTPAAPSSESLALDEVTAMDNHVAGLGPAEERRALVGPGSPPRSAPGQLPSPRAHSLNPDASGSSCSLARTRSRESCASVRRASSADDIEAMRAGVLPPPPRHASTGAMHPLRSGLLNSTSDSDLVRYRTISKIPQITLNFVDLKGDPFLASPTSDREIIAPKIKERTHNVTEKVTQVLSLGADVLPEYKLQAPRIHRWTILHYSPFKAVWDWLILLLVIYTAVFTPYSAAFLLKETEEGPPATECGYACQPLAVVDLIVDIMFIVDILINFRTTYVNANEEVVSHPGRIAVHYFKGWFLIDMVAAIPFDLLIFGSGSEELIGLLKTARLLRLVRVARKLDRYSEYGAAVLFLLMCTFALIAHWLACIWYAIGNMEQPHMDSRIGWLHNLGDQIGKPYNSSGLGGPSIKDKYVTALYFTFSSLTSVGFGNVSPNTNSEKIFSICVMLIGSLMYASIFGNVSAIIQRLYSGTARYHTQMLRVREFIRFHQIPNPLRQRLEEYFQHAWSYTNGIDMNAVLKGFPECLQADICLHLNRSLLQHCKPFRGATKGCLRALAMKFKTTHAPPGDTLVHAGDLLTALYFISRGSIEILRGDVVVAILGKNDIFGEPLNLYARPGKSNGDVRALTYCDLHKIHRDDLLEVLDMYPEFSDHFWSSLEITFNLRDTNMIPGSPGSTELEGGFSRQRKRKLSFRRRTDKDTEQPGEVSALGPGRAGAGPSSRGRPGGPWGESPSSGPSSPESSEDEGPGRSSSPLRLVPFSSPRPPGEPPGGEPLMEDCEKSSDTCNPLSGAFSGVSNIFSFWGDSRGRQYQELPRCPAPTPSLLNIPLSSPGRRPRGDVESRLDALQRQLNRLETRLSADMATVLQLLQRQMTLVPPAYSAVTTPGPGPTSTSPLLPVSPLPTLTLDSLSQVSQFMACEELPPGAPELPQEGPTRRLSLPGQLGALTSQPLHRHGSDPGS
Chain of recombinant PfPKG (Q8I719 whole entry): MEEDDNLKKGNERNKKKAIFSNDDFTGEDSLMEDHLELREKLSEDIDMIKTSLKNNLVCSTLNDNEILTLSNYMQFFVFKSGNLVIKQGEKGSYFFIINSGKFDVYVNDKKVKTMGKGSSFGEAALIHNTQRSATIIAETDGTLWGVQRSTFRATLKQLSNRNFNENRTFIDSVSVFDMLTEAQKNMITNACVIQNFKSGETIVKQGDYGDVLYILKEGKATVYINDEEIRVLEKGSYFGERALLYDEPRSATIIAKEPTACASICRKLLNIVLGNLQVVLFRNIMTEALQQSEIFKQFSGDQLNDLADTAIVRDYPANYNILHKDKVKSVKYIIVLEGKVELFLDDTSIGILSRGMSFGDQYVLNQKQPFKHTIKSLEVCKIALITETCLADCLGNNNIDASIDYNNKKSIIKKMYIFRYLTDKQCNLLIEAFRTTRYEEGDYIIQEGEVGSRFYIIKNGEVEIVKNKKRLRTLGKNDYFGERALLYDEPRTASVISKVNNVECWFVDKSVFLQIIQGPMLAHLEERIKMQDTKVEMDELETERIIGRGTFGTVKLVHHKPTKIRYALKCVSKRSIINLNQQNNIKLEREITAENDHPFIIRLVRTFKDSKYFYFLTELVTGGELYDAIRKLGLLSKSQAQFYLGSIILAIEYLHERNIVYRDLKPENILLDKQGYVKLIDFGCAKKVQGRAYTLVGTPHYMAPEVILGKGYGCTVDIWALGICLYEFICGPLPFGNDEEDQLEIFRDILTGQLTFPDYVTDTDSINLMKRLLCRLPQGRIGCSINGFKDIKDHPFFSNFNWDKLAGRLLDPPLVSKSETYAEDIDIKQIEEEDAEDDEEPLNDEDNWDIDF
Chain of recombinant PfCDPK4 (Q8IBS5 whole entry): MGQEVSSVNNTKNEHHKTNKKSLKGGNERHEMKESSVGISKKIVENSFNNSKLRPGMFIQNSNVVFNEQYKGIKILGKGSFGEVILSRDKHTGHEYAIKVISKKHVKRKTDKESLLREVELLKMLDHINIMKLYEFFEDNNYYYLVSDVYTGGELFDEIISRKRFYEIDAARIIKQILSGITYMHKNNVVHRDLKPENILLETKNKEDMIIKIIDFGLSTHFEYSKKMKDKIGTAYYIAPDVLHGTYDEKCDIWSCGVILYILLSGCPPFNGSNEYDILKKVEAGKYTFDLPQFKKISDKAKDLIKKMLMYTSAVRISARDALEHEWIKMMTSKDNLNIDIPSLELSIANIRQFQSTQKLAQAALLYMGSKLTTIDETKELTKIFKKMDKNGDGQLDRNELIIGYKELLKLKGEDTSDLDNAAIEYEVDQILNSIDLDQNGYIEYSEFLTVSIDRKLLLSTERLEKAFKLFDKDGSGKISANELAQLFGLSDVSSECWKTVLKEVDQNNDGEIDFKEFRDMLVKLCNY

With `CCOc1ccc2cc(-c3nn(C(C)C)c(N)c3C(N)=O)cnc2c1` [Compound 14], the EC50 with CRL-8155 cells and in the data set with HepG2 cells was greater than 30000 nM throughout.

Turning to `COc1ccc2cc(-c3nn(C(C)(C)C)c(N)c3C(N)=O)cnc2c1` [Compound 4], the 50% effective concentration (EC50) with CRL-8155 cells and with HepG2 cells was greater than 30000 nM each time.

For `CCOc1ccc2cc(-c3nn(C(C)(C)C)c(N)c3C(N)=O)cnc2c1` [Compound 6], the EC50 in the data set with HepG2 cells is greater than 30000 nM. In addition, in data set [1], the anti-erythrocytic stage inhibition entry is listed as “some observable anti-erythrocytic stage inhibition”.

In the case of `CC(C)(C)n1nc(-c2ccc3cc(O)ccc3c2)c(C(N)=O)c1N` [Compound 2], the half-maximal effective concentration (EC50) in the data set on CRL-8155 cells and in the data set with HepG2 cells was greater than 30000 nM throughout. In data set [1], the anti-erythrocytic stage inhibition result is on record as “some observable anti-erythrocytic stage inhibition”.

`CCOc1ccc2cc(-c3nn(C4CCOC4)c(N)c3C(N)=O)ccc2n1` (centres unmarked) [Compound 25]: the 50% inhibitory concentration (IC50) against PfCDPK1 came out at 468 nM; at recombinant PfCDPK4 it was 103 nM.

For the compound `CCOc1ccc2cc(-c3nn(C(C)(C)C)c(N)c3C(N)=O)ccc2c1` [Compound 5], the 50% inhibitory concentration (IC50) against PfCDPK1 is 287 nM; on recombinant PfPKG it was 2370 nM.

Turning to `CCOc1ccc2cc(-c3nn(CC(C)(C)CO)c(N)c3C(N)=O)cnc2c1` [Compound 17], the EC50 in the data set with CRL-8155 cells and with HepG2 cells was greater than 30000 nM throughout.

`CCOc1ccc2cc(-c3nn(C4CCCCC4)c(N)c3C(N)=O)ccc2n1` [Compound 26]: the EC50 in the data set on CRL-8155 cells and in the data set on HepG2 cells was greater than 30000 nM each time. Also, the anti-erythrocytic stage inhibition entry in data set [1] is reported as “some observable anti-erythrocytic stage inhibition”.

`CC(C)n1nc(-c2ccc3nc(OC4CCC4)ccc3c2)c(C(N)=O)c1N` [Compound 27] came in with a concentration for half-maximal inhibition (IC50) on PfCDPK1 of 159 nM.

As to `CC(C)(C)n1nc(-c2cnc3cc(OC4CC4)ccc3c2)c(C(N)=O)c1N` [Compound 8], on PfCDPK1, half-maximal inhibition (IC50) was put at 225 nM.

As to `CCOc1ccc2cc(-c3nn(CC4CCN(C)CC4)c4ncnc(N)c34)ccc2c1` [Compound 1294], the toxicity result in data set [2] (initial mouse studies) is reported as “low toxicity”. Further, the oral availability result in data set [2] (mouse) is reported as “orally available”. Also, at hERG, the hERG inhibitory activity entry is recorded as “hERG inhibitory activity at therapeutic concentrations”.
